Reference: patent publication US4026888A, “Certain derivatives of particular 3-thiolated cephalosporins” (priority 1976, dated 1977)
Values after ≈ are worked out from the molar mass of the structure shown. Read-outs that look alike come from different tables or passages of the source.

What was measured:
Str. pneumoniae A9585 = assay: Antibiotic activity in nutrient broth (MIC); assay type: cell-based; conditions: Streptococcus pneumoniae, A9585, inoculum 10^-3 dilution of overnight broth culture; 45% AAB + 5% serum + 50% broth; derivatives adjusted for BL-S640 content
Text: (§1) Antibiotic Activity In Nutrient Broth
(§2) * 45% AAB+ 5% serum+ 50% broth listed above.
(§3) ** Dilution of overnight broth culture.
(§4) Antibiotic Spectrum Nutrient Broth
(§5) * 45% AAB + 5% serum + 50% broth
(§6) Antibiotic Spectrum in Nutrient Broth
(§7) *45% AAB + 5% serum + 50% broth listed above.

Str. pyogenes A9604 = assay: Antibiotic activity in nutrient broth (MIC); assay type: cell-based; conditions: Streptococcus pyogenes, A9604, inoculum 10^-3; 45% AAB + 5% serum + 50% broth; derivatives adjusted for BL-S640 content; read-out: MIC
Text: as §1, §2, §3, §4, §5, §6, §7

P. mirabilis A9900 [1] = assay: Oral PD50 in mice; assay type: in vivo; conditions: Proteus mirabilis, A9900, po, 3.5 h, oral; mice treated at 1 and 3.5 hours post-challenge; read-out: PD50
[2] = Mouse blood levels after oral administration; assay type: in vivo; conditions: mouse, blood, po, 100 mg/kg, Example 3, PO 100 mg./kg., Tween-CMC, average of two experiments, read-out: Blood Levels
Description: Mouse Blood Levels After Oral
Administration Of 100 mg./kg. Body Weight
The compounds were prepared in
Tween - carboxymethylcellulose
and 8 mice were used for each
Mouse Blood Levels After PO
Administration of 100 mg./kg. Body Weight
The compounds were prepared in Tween-CMC. BL-S640
The compounds were prepared in Tween-CMC. Values are the average of two

P. mirabilis A9900 [3] = assay: IM PD50 in mice; assay type: in vivo; conditions: Proteus mirabilis
Text: Comparative IM PD50 Values of
(§8) BL-S640 Derivatives in Mice

[4] = 0 min
Description: Paper strip bioautographs were run in the following manner. Samples were dissolved at a concentration of 500 γ/ml. in 0.1M pH 7 phosphate buffer and pH 7 pooled human serum at 500 γ/ml. A 10 μl sample of BL-S640 and the above product were spotted on a 1/2 inch strip of What. No. 1 paper and developed at 27° for 16 hours in a butyl acetate 80, n-butanol 15, acetic acid 40, and water 24 system. The strips were air-dried, and placed on an agar plate seeded with B. subtilis A.T.C.C.
Samples were chromatographed on a μ Bondapak C18 (Waters Associates) column using a 0.01M sodium acetate pH 4/-methanol 8/2 mobile phase at a flow rate of 0.52 ml./min. Detection was by UV at 354 μm. Samples were dissolved at a concentration of 1 mg./ml. in the mobile phase, 2 μ were injected and BL-S640 was eluted at 18 min. and the aldehyde at 6 min. The quantitation of BL-S640 and 5-formylfuransulfonic acid were made using p-toluene-sulfonic acid as an internal standard.

S. aureus Smith A9537 = assay: Antibiotic activity in nutrient broth (MIC); assay type: cell-based; conditions: Staphylococcus aureus, SMITHA9537, inoculum 10^-4, derivatives adjusted for BL-S640 content, read-out: MIC
Text: as §1, §3, §4, §6

Ent. cloacae A9657 = assay: Antibiotic activity in nutrient broth (MIC); assay type: cell-based; conditions: Enterobacter cloacae, A9657, inoculum 10^-4; derivatives adjusted for BL-S640 content; read-out: MIC
Text: as §1, §3, §4, §6

Pr. morganii A15153 = assay: Antibiotic activity in nutrient broth (MIC); assay type: cell-based; conditions: Morganella morganii, A15153, inoculum 10^-4; derivatives adjusted for BL-S640 content; read-out: MIC
Text: as §1, §3, §4, §6

K. pneumoniae A15130 = assay: Antibiotic activity in nutrient broth (MIC); assay type: cell-based; conditions: Klebsiella pneumoniae, A15130, inoculum 10^-4; derivatives adjusted for BL-S640 content; read-out: MIC
Text: as §1, §3, §4, §6

Ser. marcescens A20019 = assay: Antibiotic activity in nutrient broth (MIC); assay type: cell-based; conditions: Serratia marcescens, A20019, inoculum 10^-4; derivatives adjusted for BL-S640 content
Text: as §1, §3, §4, §6

Sal. enteritidis A9531 = assay: Antibiotic activity in nutrient broth (MIC); assay type: cell-based; conditions: Salmonella enterica, ENTERITIDIS, inoculum 10^-4; derivatives adjusted for BL-S640 content; read-out: MIC
Text: as §1, §3, §4, §6

Pr. mirabilis A9900 = assay: Antibiotic activity in nutrient broth (MIC); assay type: cell-based; conditions: Proteus mirabilis, inoculum 10^-4, derivatives adjusted for BL-S640 content
Text: as §1, §3, §4, §6

K. pneumoniae A9977 [5] = assay: Antibiotic activity in nutrient broth (MIC); assay type: cell-based; conditions: Klebsiella pneumoniae, inoculum 10^-4, derivatives adjusted for BL-S640 content, read-out: MIC
Text: as §1, §3, §4, §6

Ent. cloacae A9656 = assay: Antibiotic activity in nutrient broth (MIC); assay type: cell-based; conditions: Enterobacter cloacae, A9656, inoculum 10^-4; derivatives adjusted for BL-S640 content
Text: as §1, §3, §4, §6

[6] = Urinary recovery after IM administration to rats; assay type: in vivo; conditions: rat, urine, 50 mg/kg, IM 50 mg./kg., read-out: Urinary Recovery, Percentage of Administered Dose Recovered
Description: Urinary Recovery After IM
Administration of 50 and 10 mg./kg. to Rats
The compounds were prepared in 0.01% phosphate buffer. BL-S640 was used as
Urinary Recovery after IM
Administration of 50 mg./kg. to Rats
(§9) The compounds were prepared in 0.01% phosphate buffer.

[7] = Mouse blood levels after intramuscular administration; assay type: in vivo; conditions: mouse, blood, im, 10 mg/kg, Example 3, IM 10 mg./kg., average of 3 experiments, read-out: Blood Levels
Description: Mouse Blood Levels After Intramuscular Administration
of 10 mg./kg. Body Weight
The compounds were dissolved in 0.01% phosphate buffer.
Mouse Blood Levels After IM
Administration of 10 mg./kg. Body Weight
The compounds were prepared in 0.01% phosphate
as §9

[8] = Paper chromatography of rat urine for antibiotically active metabolites; assay type: in vivo; conditions: IM; rat urine 0-2 and 2-4 hours
Description: Paper chromatograms were run on rat urine collected between 0 and 2 and between 2 and 4 hours following IM administration of BL-S1055 and 640, for the detection of antibiotically active metabolites using descending chromatography with system No. 9 (butyl acetate:n-butanol:glacial acetic acid:H2 O= 80:15:40:24).

E. coli A15119 = assay: Oral PD50 in mice; assay type: in vivo; conditions: oral, mice treated at 1 and 3.5 hours post-challenge
Description: (§10) Comparative Oral PD50 Values of
as §8
(§11) *Mice were treated at 1 and 3.5 hours post-challenge.

P. mirabilis A9707 = assay: Oral PD50 in mice; assay type: in vivo; conditions: Proteus mirabilis, mice treated at 1 and 3.5 hours post-challenge
Description: as §10, §8, §11

K. pneumoniae A9977 [9] = assay: Oral PD50 in mice; assay type: in vivo; conditions: Klebsiella pneumoniae, A9977; oral; mice treated at 1 and 3.5 hours post-challenge; read-out: PD50
Description: as §10, §8, §11

S. pyogenes A9604 = assay: Oral PD50 in mice; assay type: in vivo; conditions: Streptococcus pyogenes, mice treated at 1 and 3.5 hours post-challenge
Description: as §10, §8, §11

Structure (SMILES): O=C(O)C1=C(CSc2cnn[nH]2)CS[C@@H]2[C@H](N3C(=O)[C@@H](c4ccc(O)cc4)NC3c3ccccc3S(=O)(=O)O)C(=O)N12 (some centres unmarked) [BL-S1055]
- MIC (Str. pneumoniae A9585): 0.06 µg/mL
- MIC (Str. pyogenes A9604): 0.016 µg/mL
- ED50 (P. mirabilis A9900 [1]): 8.2 mg/kg
- concentration at 0.5 h ([2]; 0.5 hr): 38200 ng/mL
- concentration at 1 h ([2]; 1 hr): 35700 ng/mL
- concentration at 2 h ([2]; 2 hr): 22000 ng/mL
- concentration at 3.5 h ([2]; 3.5 hr): 11300 ng/mL
- ED50 (P. mirabilis A9900 [3]): 1.6 mg/kg
- % Free BL-S640 by liquid chromatography [4]: 64.0%
- MIC (S. aureus Smith A9537; + 50% serum): 2 µg/mL
- MIC (S. aureus Smith A9537; nutrient broth): 0.13 µg/mL (≈ 0.206 µM)
- MIC (Ent. cloacae A9657): 0.5 µg/mL (≈ 0.793 µM)
- MIC (Pr. morganii A15153): 32 µg/mL (≈ 50.7 µM)
- MIC (K. pneumoniae A15130): 1 µg/mL (≈ 1.59 µM)
- MIC (Ser. marcescens A20019): 125 µg/mL (≈ 198 µM)
- MIC (Sal. enteritidis A9531): 0.35 µg/mL (≈ 0.555 µM)
- MIC (Pr. mirabilis A9900): 0.5 µg/mL (≈ 0.793 µM)
- MIC (K. pneumoniae A9977 [5]): 0.5 µg/mL (≈ 0.793 µM)
- MIC (Ent. cloacae A9656): 125 µg/mL (≈ 198 µM)
- dose excreted at 6 h ([6]; 0-6 hr): 36.6%
- dose excreted at 24 h ([6]; 0-24 hr): 39%
- dose excreted at 24 h ([6]; 6-24 hr): 2.4%
- concentration at 0.25 h ([7]; 0.25 hr): 10300 ng/mL
- concentration at 0.5 h ([7]; 0.5 hr): 9900 ng/mL
- concentration at 1 h ([7]; 1 hr): 7600 ng/mL
- concentration at 1.5 h ([7]; 1.5 hr): 6500 ng/mL
- Hydrolysis to the parent compound (BL-S640) [8]: complete hydrolysis
- ED50 (E. coli A15119; Escherichia coli, A15119, po, 3.5 h, read-out: PD50): 1.8 mg/kg
- PD50 (E. coli A15119): 1.6 mg./kg./treatment
- ED50 (P. mirabilis A9707): 1 mg/kg
- ED50 (K. pneumoniae A9977 [9]): 1.6 mg/kg
- ED50 (S. pyogenes A9604): 0.4 mg/kg
